Experimental findings from US7244712B2, “Aminoglycoside antibiotics and methods of using same” (priority 2004, dated 2007) are described below.

Converted amounts (≈) assume the structure as drawn.

For test [1], the system named is E. coli (ATCC 25922). As to the kind of experiment: Antibiotic activity disk assay, wild type E. coli. It is filed as cell-based. As to conditions: FIG. 7A. How it is done:
E. coli (ATCC 25922) and P. aeruginosa (ATCC 27853) (BD Bioscience) were inoculated in 3 mL of the medium 2 (U.S. Pharmacopia), containing 6 g peptone, 3 g yeast extract and 1.5 g beef extract per 1 L, pH 6.6, and were grown in a shaker for 6 h at 37° C. until an OD 560=0.6-0.8 was reached.
For the antibiotic disk assay, […] of each bacterial inoculum was mixed with 10 mL of melted agar (1.5% medium 2 agar, BD Bioscience) at 50-55° C. and poured onto 100 mm Petri dishes. Sterile Whatmann 3 MM 5 mm paper disks were soaked with antibiotic solutions and allowed to dry. The disks were positioned evenly on the surface of bacterial-inoculated solid agar and the plates were incubated at 37° C. for 1-2 days. MIC and bactericide index measurements.

Test [2] concerns E. coli (ATCC 25922). As to the kind of experiment: Bactericidal activity (bactericide index). As to conditions: 3 h incubation, FIG. 8. The class given is cell-based. How it is done: The bactericidal activity of each antibiotic was investigated at concentrations of 0.5-4×MIC in medium E. coli (ATCC 25922) inoculum was added to 0.5 mL medium 2 to OD 600 ˜0.1 together with different antibiotic concentrations. The samples were incubated at 37° C. for 3 hrs, and the bacteria were collected by centrifugation. The bacterial pellets were washed with 0.5 mL of medium 2 and were plated on 1.5% medium 2 agar in 100 mm Petri dishes. The plates were incubated for 1-2 days at 37° C. and mean log 10 change in viable count was calculated and plotted vs drug concentration.

In test [3] the test system is E. coli (ATCC 25922). As to the kind of experiment: MIC, wild type E. coli. It is filed as cell-based. As to conditions: growth inhibition greater than 90%. On the procedure: (§1) Minimal inhibitory concentrations (MIC) were measured according to the published method (Greenberg, W. A., Priestley, E. S., Sears, P. S., Alper, P. B., Rosenbohm, C., Hendrix, M., Hung, S.-C., & Wong, C.-H. (1999) J. Am. Chem. Soc. 121, 6527-6541). E. coli (ATCC 25922) (both wild type and pMM-transformed) and P. aeruginosa (ATCC 27853) were grown in medium 2 to an optical density OD 600 of 0.6-0.8. The inoculi were diluted to OD 600 ˜0.1 in medium 2 and 1 mL of the culture was placed in 13 mL test tubes. The desired concentrations of antibiotic were added from stock solutions. […] The absorbance at 600 nm of each sample was read and MIC was taken as the lowest antibiotic concentration inhibiting bacterial growth by greater than 90%.

Test [4] relates to P. aeruginosa (ATCC 27853). As to the kind of experiment: MIC, P. aeruginosa. As to conditions: growth inhibition greater than 90%. The class given is cell-based. How it is done:
as §1

Test [5] deals with 80S ribosome. As to the kind of experiment: Fluorescence anisotropy binding to 80S ribosomes. More on the design: species or system yeast (S. cerevisiae). To be noted: competition with CRP, yeast ribosomes; read-out: Dissociation constant (KD) with 80S ribosome. On the procedure:
After establishing the lack of stereospecificity in the binding of aminoglycosides to the A-site RNA constructs (FIG. 9A-C) where the binding affinity, KD, is about 0.1 μM to about 100 μM, the stereospecificity of aminoglycoside binding to intact ribosomes was determined. Both yeast and E. coli ribosomes were prepared and aminoglycoside binding was measured using fluorescence anisotropy methods. For example, fluorescence anisotropy methods recited in Wang, Y., and Rando, R. R. Chem. Biol. (1995) 2, 281-290; and Wang, Y., Hamasaki, K., and Rando, R. R. Biochemistry (1997) 36,768-779. CRP was used as the binding probe. […] Binding data reported herein for aminoglycoside compounds with eukaryotic yeast ribosomes are similar to binding data for said aminoglycoside compounds with ribosoimes in bacteria and with eukaryotic A-site rRNA constructs.
5-Carboxytetramethylrhodamine-labeled paromomycin (CRP) and tobramycin (CRT) concentrations were determined spectroscopically at 550 nm using a molar extinction coefficient of 6.00×10 4 M −1 cm −1. Fluorescence anisotropy measurements were performed on a Perkin-Elmer LS-50B luminescence spectrometer equipped with a thermostat accurate to ±0.1° C. as indicated previously (Wang, Y., Hamasaki, K., & Rando, R. R. (1997) Biochemistry 36, 768-779). The tracer solution was excited at 550 nm and monitored at 580 nm. The integration time was 5 s. For every point, 6 measurements were taken, and their average values were used for calculation. Measurements were carried out in a buffer solution containing 150 mM NaCl, 5 mM KCl, 1 mM CaCl2, 1 mM MgCl2, and 20 mM HEPES (pH 7.5). Prior to measurements, RNA constructs were renatured by incubating in binding buffer {150 mM NaCl, 5 mM KCl, 1 mM CaCl2, 1 mM MgCl2, and 20 mM HEPES (pH 7.5)} for 3 minutes at 90° C. followed by slow cooling to 25° C.
Equation 1 was used for the determination of the dissociation constant (Kd) for the interactions between RNA or ribosome and CRP. A=A0+DA{(RNA)0+(CRP)0+Kd−({(RNA)0+(CRP)0+Kd}^2−4(RNA)0(CRP)0)½}/2 where A and A0 are the fluorescence anisotropy of CRP in the presence and absence of RNA, respectively, and DA is the difference between the fluorescence anisotropy of CRP in the presence of an extrapolated infinite concentration of RNA minus the fluorescence anisotropy in the absence of RNA. (RNA)0 and (CRP)0 are the initial concentrations of RNA and CRP, respectively.
Equation 2 is used for the calculation of the KD values in the competition binding assay. (aminoglycoside)0={KD(A−−A)/Kd(A−A0)+1}{(RNA)0−Kd(A−A0)/(A−−A)−(CRP)0(A−A0)/(A−−A)} where KD is the dissociation constant between the RNA and the aminoglycosides; (aminoglycoside)0 is the initial concentration of the aminoglycosides; AL is anisotropy of completely bound tracer. Both Kd and KD were determined by non-linear curve fitting using the equations described above, and are presented as mean values of three independent measurements.
The purification of yeast 80S ribosomes from S. cerevisiae strain YSB 758 was carried out according to the published procedure (Verschoor, A., Warner, J. R., Srivastava, S., Grassucci, R. A., & Frank, J. (1997) Nucl. Acid Res. 26, 655-661). S. cerevisiea YSB 758 were grown for 12 hrs at 30° C. in 2L of YPD medium, containing: 20 g bacto peptone, 20 g glucose, 10 g yeast extract and 0.15 g tryptophan per 1 L, pH 7.0. The cells were lysed by 5-10 cycles of 1 min vigorous shaking with glass beads with a vortex, followed by cooling on ice. Clarified cell extract (about 9 mL total, used in 6 portions in 1.5 mL aliqouts) was carefully loaded on top of 2 mL of a cushion, composed of 10% sucrose and 5% ammonium sulfate dissolved in buffer YR1 (20 mM HEPES pH=7.4, 16 mM magnesium chloride, 100 mM potassium chloride, 5 mM DTT, and 0.5 mM EDTA). The ribosomes were collected by centrifugation in Beckman TL100.3 rotor at 75000 rpm for 3 h. The supernatants were carefully discarded and ribosomes were collected in buffer YR1. […]
For orientation: In fluorescence polarisation assays a small probe gives low polarisation when free and higher when bound to something large.

Take `NCC1OC(OC2C(N)CC(N)C(O)C2O)C(N)C(O)C1O` [L-Neamine]: the “Antibiotic activity in disk assay, WT E. coli” value in test [1] is “somewhat lower activity”. Moreover, in test [2], the “Concentration at which bactericidal effect begins” value is 600 µM. Moreover, the “Minimal inhibitory concentration (MIC), E. coli” value in test [3] worked out at 1300 µM (≈ 419 µg/mL). Moreover, the “Minimal inhibitory concentration (MIC), P. aeruginosa” value in test [4] was found to be 1600 µM (≈ 516 µg/mL). Also, the Kd in test [5] worked out at 6.06 ± 0.63 µM.

The term Kd denotes the equilibrium constant for the complex coming apart.
